# Where a SMILES comes first, the peptide text is derived from it. The star is where a group is joined. Arachidoyl = CCCCCCCCCCCCCCCCCCCC(=O)*; Stearoyl = CCCCCCCCCCCCCCCCCC(=O)*; Palmitoyl = CCCCCCCCCCCCCCCC(=O)*; Myristoyl = CCCCCCCCCCCCCC(=O)*; Lauroyl = CCCCCCCCCCCC(=O)*
# Legend:
# [1] = RP-HPLC retention time as measure of hydrophobicity; type: physicochemical; details: chromatographic, Vydac C18 300 Å 4.6 × 250 mm, 1.0 mL/min, gradient 30-100% acetonitrile/0.1% TFA, 215 nm, column 25 ± 5 °C; maximum height of peak
# Protocol: Peptides were synthesized using the Fmoc SPPS methods. Briefly, the peptide LVTX-9 (AC-[…]-amide) was prepared on Rink Amide AM resin at a 0.2 mmol scale. A 4-fold excess of the Fmoc-protected amino acids was coupled with the Rink Amide AM resin using HCTU and HOBT as the activating agents in 5% NMM/DMF. After the synthesis of LVTX-9, the N-terminal Fmoc group was removed using 20% piperidine. As in the previous steps, a series of fatty acids (C12-C20) was activated in HCTU and HOBT using 5% NMM/DMF, and coupled to peptidyl resin for 2 h. Peptides were cleaved using trifluoroacetic acid (TFA)/thioanisole (TIS)/anisole (95:3:2 (v/v)) for 2.5 h, and the collected lysate was precipitated in cold diethyl ether three times. The precipitate was air-dried naturally. Next, the obtained crude products were purified using RP-HPLC (C18, 4.6 mm × 250 mm) on the basis of a 0.1% TFA/acetonitrile gradient from 30% to 100% in 46 min. Then, we collected the eluted peptides and determined the molecular mass using MALDI-TOF MS (AB, SCIEX, Waltham, MA, USA).
# Figure 2 Purification and identification of five lipopeptides using RP-HPLC and MALDL-TOF MS: The purification of (A) LVTX-9-C12, (B) LVTX-9-C14, (C) LVTX-9-C16, (D) LVTX-9-C18, and (E) LVTX-9-C20 was performed using RP-HPLC (column, Vydac, C18, 300 Å, 4.6 × 250 mm). The lipopeptides were separated at a flow rate of 1.0 mL/min under a gradient of 30–100% acetonitrile/0.1% TFA. The elution of lipopeptides was monitored at 215 nm. Identification of (F) LVTX-9-C12, (G) LVTX-9-C14, (H) LVTX-9-C16, (I) LVTX-9-C18, and (J) LVTX-9-C20 by MALDI-TOF MS, respectively. The red star (*) represents the target peak. […]
# Table S1. Purification gradient of peptides.
# Time (min) Flow Rate (mL/min) A% B%
# Wavelength: 215 nm/280 nm, column temperature: 25 ± 5 ℃, A: ddH2O (0.1% TFA), B: acetonitrile
# (1 picture or pasted object on this page, not shown here)
# B16-F10 tumor spheroids = experiment: Toxicity in 3D tumor spheroids; type: cell-based, mouse; details: 20 μM, 3 days
# Protocol: To further study the toxicity of LVTX-9 and LVTX-9-C18 in vitro, B16-F10 tumor spheroids, as 3D tumor models, were cultured according to protocols in the literature. Briefly, B16-F10 cells were seeded into an ultra-low attachment, 96-well, round-bottom plate (Corning) and cultured at 37 °C for 3–4 days. Then, the B16-F10 tumor spheroids were treated with 50 or 25 μM of LVTX-9 and 20 or 10 μM of LVTX-9-C18 in the RPMI-1640 supplied with 10% serum for 3 days. Subsequently, images were taken on days 0 and 3, and the cell viability was measured using a CellTiter-Glo 3D Cell Viability Assay (G9683).
# [2] = Dynamic light scattering (hydrodynamic size, PDI, zeta potential); type: physicochemical; details: 100 µM in ultrapure water, 25 °C, repeated three times
# Protocol: (§1) Dynamic light scattering (DLS) of Zetasizer Nano ZSP (Malvern Instruments, Malvern, UK) apparatus was used to determine the hydrodynamic size and zeta potential of LVTX-9 and LVTX-9-C18. The peptides concentrations were diluted to 100 µM with ultrapure water with a final volume of 1 mL. The procedure ran at 25 °C, with each experiment repeated three times. The secondary structures of LVTX-9 and LVTX-9-C18 were determined to be in line with the previous protocol. The peptide concentrations were then diluted to 100 µM with ultrapure water and 100 mM of SDS was added in a final volume of 250 μL. The procedure was carried out at 25 °C. CD spectra were recorded between 180 nm and 280 nm on a Jasco J-815 CD spectrometer.
# B16-F10 cells [3] = experiment: Trypan blue staining; type: cell-based, mouse; details: 5 μM, 24 h, 0.04% trypan blue 4 min
# Protocol: B16-F10 cells were seeded into a 48-well plate (2 × 10^3 cells/well) for 24 h and treated with LVTX-9 (50 μM) and LVTX-9-C18 (5 μM) for 24 h. The cells were washed with PBS gently and stained with 0.04% Trypan blue for 4 min. Dead cells were stained blue.
# B16-F10 cells [4] = experiment: Colony formation assay; type: cell-based, mouse; details: 1 μM, 7 days, crystal violet, mean ± SD, n = 3, control group 51 ± 12.0, p = 0.0198 vs control
# Protocol: To detect the proliferation of B16-F10 cells treated with LVTX-9 and LVTX-9-C18 at low concentrations, digested cells were counted using a Cellometer K2 and seeded into a 12-well plate with approximately 100 cells per well. After 36 h, cells were treated with LVTX-9 (10 μM) and LVTX-9-C18 (1 μM), then incubated for 7 days at 37 °C in a humidified 5% CO2 atmosphere. Visible colonies were stained with 0.5% crystal violet and photographically recorded. The colony formation rates were calculated, and curves were manufactured by GraphPad prism 5.0.
# B16-F10 cells [5] = experiment: LDH leakage assay; type: cell-based, mouse; details: 12.5 μM, 24 h, absorbance 490 nm, n = 3
# Protocol: At first, the B16-F10 cells were cultured in 96-well plates for 24 h at approximately 2 × 10^3 cells/well. Subsequently, the cells were treated for 24 h with LVTX-9 or LVTX-9-C18 with a series of concentration gradients. LDH leakage detection was detected using an LDH Cytotoxicity Assay Kit according to the manufacturer’s instructions (Beyotime, Shanghai, China. C0017). The absorption was measured using an Absorbance Microplate Reader (BioTek Instruments) at 490 nm. The LDH release (%) of peptides was calculated by GraphPad prism 5.0.
# [6] = Circular dichroism secondary structure; type: physicochemical; details: 100 µM, 25 °C, 180-280 nm
# Protocol: as §1
# B16-F10 cells [7] = experiment: CCK-8 cell viability assay, B16-F10 cells; type: cell-based, mouse; details: 1 μM
# Protocol: Mouse skin melanoma cells (B16-F10) were cultured in RPMI-1640 (Gibco), and mouse fibroblast cells (L-929), human lung carcinoma cells (A549), mouse breast cells (4T1), human hepatocarcinoma cells (HepG2), and human cervical carcinoma cells (Hela) were cultured in Dulbecco’s Modified Eagle Medium (DMEM, Gibco). All culture medium contained 10% fetal bovine serum (serum, Gibco), 100 U/mL of penicillin, and […] of streptomycin at 37 °C with 5% CO2.
# Cell viability was quantified using a CCK-8 assay. At first, cells were seeded into a 96-well plate at approximately 2 × 10^3 cells/well. The following day, we created a 2-fold dilution series of each peptide using fresh medium (with or without 10% serum) for the treated cells, and cell viability was detected at 450 nm via a CCK-8 assay using an Absorbance Microplate Reader (BioTek Instruments, Winooski, VT, USA) following 24 h of drug incubation. The activity curves and IC50 values of the peptides were visualized using GraphPad prism 5.0.
# B16-F10 cells [8] = experiment: Scanning electron microscopy of cell membrane; type: cell-based, mouse; details: 5 μM, 24 h
# Protocol: The morphologic changes of the cell membrane of B16-F10 cells treated with peptides were observed by SEM [14]. The cells were seeded on coverslips and placed into a six-well plate, then treated with LVTX-9 (50 μM) and LVTX-9-C18 (5 μM) for 24 h. After incubation, the B16-F10 cells were washed with sterile PBS gently three times and fixed with 2 mL of 2.5% glutaraldehyde solution in each well for 4 h at room temperature. Then, the fixed cells were dehydrated with a series of ethanol concentrations. We dried the samples with a Critical Point Dryer and coated them with gold plating before observation. A scanning electron microscope (Hitachi Su8010, Tokyo, Japan) was used to examine the prepared samples.
structure (smiles),measurement,setting,value
CCCCCCCCCCCC(=O)N[C@@H](C)C(=O)N[C@@H](CO)C(=O)N[C@H](C(=O)NCC(=O)N[C@@H](C)C(=O)N[C@@H](CC(C)C)C(=O)N[C@H](C(=O)N[C@@H](CCC(N)=O)C(=O)N[C@@H](CCCCN)C(=O)N[C@@H](C)C(=O)N[C@H](C(=O)N[C@@H](C)C(=O)N[C@@H](CC(C)C)C(=O)N[C@H](C(=O)N[C@@H](CCCCN)C(=O)N[C@@H](C)C(=O)N[C@@H](CCCCN)C(=O)N[C@@H](C)C(=O)N[C@@H](C)C(N)=O)[C@@H](C)CC)[C@@H](C)CC)[C@@H](C)CC)[C@@H](C)CC [LVTX-9-C12] (Lauroyl-ASIGALIQKAIALIKAKAA-NH2),"TR (retention time, RP-HPLC; indicates the hydrophobicity of the peptides)",[1],36.52 min
CCCCCCCCCCCCCC(=O)N[C@@H](C)C(=O)N[C@@H](CO)C(=O)N[C@H](C(=O)NCC(=O)N[C@@H](C)C(=O)N[C@@H](CC(C)C)C(=O)N[C@H](C(=O)N[C@@H](CCC(N)=O)C(=O)N[C@@H](CCCCN)C(=O)N[C@@H](C)C(=O)N[C@H](C(=O)N[C@@H](C)C(=O)N[C@@H](CC(C)C)C(=O)N[C@H](C(=O)N[C@@H](CCCCN)C(=O)N[C@@H](C)C(=O)N[C@@H](CCCCN)C(=O)N[C@@H](C)C(=O)N[C@@H](C)C(N)=O)[C@@H](C)CC)[C@@H](C)CC)[C@@H](C)CC)[C@@H](C)CC [LVTX-9-C14] (Myristoyl-ASIGALIQKAIALIKAKAA-NH2),"TR (retention time, RP-HPLC; indicates the hydrophobicity of the peptides)",[1],36.15 min
CCCCCCCCCCCCCCCC(=O)N[C@@H](C)C(=O)N[C@@H](CO)C(=O)N[C@H](C(=O)NCC(=O)N[C@@H](C)C(=O)N[C@@H](CC(C)C)C(=O)N[C@H](C(=O)N[C@@H](CCC(N)=O)C(=O)N[C@@H](CCCCN)C(=O)N[C@@H](C)C(=O)N[C@H](C(=O)N[C@@H](C)C(=O)N[C@@H](CC(C)C)C(=O)N[C@H](C(=O)N[C@@H](CCCCN)C(=O)N[C@@H](C)C(=O)N[C@@H](CCCCN)C(=O)N[C@@H](C)C(=O)N[C@@H](C)C(N)=O)[C@@H](C)CC)[C@@H](C)CC)[C@@H](C)CC)[C@@H](C)CC [LVTX-9-C16] (Palmitoyl-ASIGALIQKAIALIKAKAA-NH2),"TR (retention time, RP-HPLC; indicates the hydrophobicity of the peptides)",[1],40.21 min
CCCCCCCCCCCCCCCCCC(=O)N[C@@H](C)C(=O)N[C@@H](CO)C(=O)N[C@H](C(=O)NCC(=O)N[C@@H](C)C(=O)N[C@@H](CC(C)C)C(=O)N[C@H](C(=O)N[C@@H](CCC(N)=O)C(=O)N[C@@H](CCCCN)C(=O)N[C@@H](C)C(=O)N[C@H](C(=O)N[C@@H](C)C(=O)N[C@@H](CC(C)C)C(=O)N[C@H](C(=O)N[C@@H](CCCCN)C(=O)N[C@@H](C)C(=O)N[C@@H](CCCCN)C(=O)N[C@@H](C)C(=O)N[C@@H](C)C(N)=O)[C@@H](C)CC)[C@@H](C)CC)[C@@H](C)CC)[C@@H](C)CC [LVTX-9-C18] (Stearoyl-ASIGALIQKAIALIKAKAA-NH2),cell viability of B16-F10 tumor spheroids at 20 μM,"B16-F10 tumor spheroids; CellTiter-Glo 3D Cell Viability Assay, n = 4, p < 0.0001",notably reduced the cell viability
same,growth (volume) of B16-F10 tumor spheroids at 20 μM,"B16-F10 tumor spheroids; RPMI-1640 with 10% serum, p = 0.0072",significantly suppressed
same,"PDI (hydrodynamic size, DLS)",[2],0.64 ± 0.1369
same,zeta potential,[2]; p = 0.0084,significantly higher than that of LVTX-9
same,trypan blue staining at 5 μM,B16-F10 cells [3],stained blue
same,colony number at 1 μM,B16-F10 cells [4],26 ± 2.9
same,LDH release at 12.5 μM,B16-F10 cells [5],~ 40%
same,secondary structure (CD) in 100 mM of SDS,[6]; 100 mM SDS,α-helical conformation
same,secondary structure (CD) in ultrapure water,[6]; ultrapure water,α-helical conformation
same,cytotoxic effect on B16-F10 cells at 1 μM,B16-F10 cells [7],no significant cytotoxic effect
same,"TR (retention time, RP-HPLC; indicates the hydrophobicity of the peptides)",[1],41.89 min
same,cell membrane morphology by SEM at 5 μM,B16-F10 cells [8],totally disorganized or even absent
CCCCCCCCCCCCCCCCCCCC(=O)N[C@@H](C)C(=O)N[C@@H](CO)C(=O)N[C@H](C(=O)NCC(=O)N[C@@H](C)C(=O)N[C@@H](CC(C)C)C(=O)N[C@H](C(=O)N[C@@H](CCC(N)=O)C(=O)N[C@@H](CCCCN)C(=O)N[C@@H](C)C(=O)N[C@H](C(=O)N[C@@H](C)C(=O)N[C@@H](CC(C)C)C(=O)N[C@H](C(=O)N[C@@H](CCCCN)C(=O)N[C@@H](C)C(=O)N[C@@H](CCCCN)C(=O)N[C@@H](C)C(=O)N[C@@H](C)C(N)=O)[C@@H](C)CC)[C@@H](C)CC)[C@@H](C)CC)[C@@H](C)CC [LVTX-9-C20] (Arachidoyl-ASIGALIQKAIALIKAKAA-NH2),"TR (retention time, RP-HPLC; indicates the hydrophobicity of the peptides)",[1],43.06 min
